Measurements taken from PubChem BioAssay AID1626 (SRMLSC, 2009).

Tested on: M. tuberculosis H37Rv growth inhibition
Assay: M. tuberculosis H37Rv growth inhibitors, H37Rv strain (AID 1626)
Settings: for IC90: measured here: IC90 against H37Rv; for CC50: measured here: Vero cell cytotoxicity

SMILES	IC50 [µM]	IC90 [µM]	CC50 [µM]
Cc1ccc2c(c1)c1c3n2CCN=C3CCC1	7.43	15.8	
CCOC(=O)c1cnc(-n2nc(C)cc2C)nc1NC1CCCC1	0.755	0.859	15.2
Cc1ccc(N=Nc2ccc(O)c3ncccc23)cc1C	14.1	> 100	3.1
Cc1cccc(C=Nc2ccc3c(c2)oc2ccccc23)c1O	1.11	> 100	
Cc1[nH]n2c(=O)cc(-c3ccc([N+](=O)[O-])cc3)nc2c1-c1ccccc1	0.747	1.43	35.1
Cc1ccc(C(=O)CNc2ccc(C)c(Cl)c2)cc1		> 100	
O=C1N=C(N2CCOCC2)S/C1=C/c1ccc(-c2ccc(F)cc2)o1		> 100	
O=C1CC(/C=C/c2ccc(Cl)cc2)=Nc2ccccc2N1	6.69	> 100	38.6
COC(=O)C(C)Oc1ccc(-c2nccc(-c3cccs3)n2)cc1 (stereo not given)	0.829	2.74	
CO[C@H]1C=CO[C@@]2(C)Oc3c(C)c(O)c4c(O)c(c5c(c4c3C2=O)NC2(CCN(CC(C)C)CC2)N=5)=NC(=O)C(C)=CC=C[C@H](C)[C@H](O)[C@@H](C)[C@@H](O)[C@@H](C)[C@H](OC(C)=O)[C@@H]1C	< 0.195	< 0.195	> 40
CCC(=O)Nc1nc2ccccc2n1Cc1ccc(C)cc1	1.39	11	> 40
O=S(=O)(Nc1nc2ccccc2nc1Nc1ccc(N2CCOCC2)cc1)c1cc(Cl)ccc1Cl		> 100	22.3
O=C(CCl)Nc1cn(-c2ccccc2)nc1-c1ccccc1	9.87	38.6	9.49
O=C(OCC#CCSc1nc2ccccc2o1)c1ccco1	4.27	12.4	
Cc1ccc(-c2nsc(SCC(=O)Nc3ccc4c(c3)OCO4)n2)cc1	0.892	2.51	
Cc1ccc(CNc2nc(-c3cccs3)nc3ccccc23)cc1	9.84	18.7	> 40
CCOC(=O)c1ccc(NC(=O)NS(=O)(=O)c2ccc(C)cc2)cc1	7.99	> 100	
Cc1ccc(NC(=O)c2ccc([N+](=O)[O-])o2)c(C)c1	6.59	11.2	13.4
O=C1c2ccccc2C(Nc2ccc(-c3nc4ccccc4[nH]3)cc2)N1Cc1ccco1 (stereo not given)	9.03	20.8	> 40
Oc1ccccc1N=Cc1ccc[nH]1	3.04	6.39	> 40

SMILES	IC50 [µM]	IC90 [µM]	CC50 [µM]
CCOc1ccc(N=Cc2c(O)n(-c3ccc(C)c(C)c3)c(=O)[nH]c2=O)cc1	< 0.195	> 100	
CCOC(=O)CNC(=O)CSc1nc(-c2cccc(C)c2)ns1	1.5	8.29	
O=C(Nc1nc(-c2ccccn2)cs1)c1ncc(Cl)c(Cl)c1Cl	1.45	5.3	31.7
O=C1CSc2ccc(C(=O)Nc3cccc(S(=O)(=O)Nc4ccc(Br)cc4)c3)cc2N1	7.03	11.9	16.5
Cc1nc(C)c(/C(O)=C/c2nc3ccccc3oc2=O)s1	< 0.195	> 100	
O=C(Nc1ccc(N2CCN(C(=O)c3ccc(Cl)cc3)CC2)cc1)c1ccc([N+](=O)[O-])o1	< 0.195	< 0.195	0.417
Cc1ccc(Nc2ccccc2N)cc1	1.46	1.66	
CCOc1ccc(N=c2scc(-c3ccccc3)n2CCO)cc1	35.1	> 100	
COc1ccc(-c2ccnc3nc(N4CCN(c5ccccc5)CC4)nn23)cc1	14.9	> 100	> 40
CCC(=O)OCCNc1cc(SCCC(=O)OC)c2nonc2c1[N+](=O)[O-]	12.2	19.5	
CC(=O)/C=C(\C)Nc1ccccc1O	0.992	2.44	> 40
Cc1cc(NC(=O)c2sccc2C)n(-c2nc3ccccc3[nH]2)n1	< 0.391	18.1	31.2
N#CCc1ccc(NC(=O)/C=C/c2ccc([N+](=O)[O-])o2)cc1	< 0.391	< 0.391	0.277
CCCCCCOC(=O)c1ccc(NC(=O)c2cc(OC)c(OC)c(OC)c2Br)cc1	5.27	8.11	> 40
COc1ccc(N=C(NN)c2ccc3ccccc3n2)cc1	54.6	> 100	
COc1ccc(N2C(=O)C(F)(F)C2c2ccccc2F)cc1 (stereo not given)	5.79	12.1	
O=C(Nc1ccc(N2CCN(C(=O)c3ccccc3)CC2)cc1)c1ccc([N+](=O)[O-])o1	< 0.195	< 0.195	1.63
O=C(O)c1ccc(-c2nc(-c3ccc(Cl)cc3)cs2)cc1	88.6	> 100	> 40
O=C(CSc1ccccn1)Nc1ccc2c(c1)oc1ccccc12	< 0.195	> 100	
Cc1nc(NC(=O)c2ccccc2)sc1Cc1ccc2c(c1)OCO2	60.5	> 100	> 40
